Key:
Type in all cases: cell-based
[1] = system: human alveolar epithelial cells (A549); assay: Electrical resistance of A549 alveolar epithelial cells on gold microelectrodes; settings: HGF 100 ng/mL; sphingosine 1-phosphate 1 μM
Experimental: FIGS. 1A-1D depict HGF-mediated increases in human transendothelial electrical resistance (TER). FIG. 1A: Human pulmonary artery endothelial cells were grown to confluence on gelatinized gold microelectrodes. Two hours prior to TER measurement, growth medium was replaced with serum-free M199. Serial-diluted HGF was added to cells at indicated concentrations and TER monitored for 2.5 hr. […] The result shown is a representative TER tracing of three independent experiments. FIG. 1B: Similar to FIG. 1A, human alveolar epithelial cells (A549) were grown on gold microelectrodes and challenged with vehicle, HGF, (100 ng/mL) or sphingosine 1-phosphate (1 μM). […]
Electrical resistance of EC monolayers was measured using electrical cell impedance sensor system (Applied Biophysics Inc., Troy, N.Y.) as described in Garcia, J. G. N. et al. (2000) J. Appl. […] Cells grown on gold microelectrodes (10^−3 cm^2) in polycarbonate wells act as insulating particles, and the resistance across the monolayers (transendothelial electrical resistance, or TER) is measured in real time. […] The in-phase and out-of-phase voltages between the electrodes were monitored in real time with the lock-in amplifier and converted to scalar measurements of transendothelial impedance, of which resistance was the primary focus. […]

[2] = system: Bovine Pulmonary Artery Endothelium; assay: Transendothelial electrical resistance (TER) across bovine pulmonary artery endothelium; settings: VEGF 100 ng/ml, Sph 1-P 1 μM, HGF 20 ng/ml
Experimental: Bovine pulmonary artery endothelial cells were purchased from the American Type Culture Collection (ATCC®, Rockville, Md.) and utilized at passage 19-24. Cells were maintained in Medium 199 (Life Technologies, Rockville, Md.) supplemented with 20% (v/v) colostrum-free bovine serum (CFBS) (Irvine Scientific, Santa Ana, Calif.), 15 μg/ml endothelial cell growth supplement (Upstate Biotechnology, Lake Placid, N.Y.), 1% antibiotic and antimycotic, and 0.1 mM non-essential amino acids (Life Technologies). Human pulmonary artery endothelial cells were purchased from Clonetics (Walkersville, Md.), cultured in EBM-2 complete medium (Clonetics) and utilized at passage 5-10. Human alveolar epithelial cells (A549) were purchased from ATCC® and cultured in the same medium as the bovine endothelial cells, except that the endothelial cell growth supplement was omitted. All cells were maintained at 37° C. in a humidified atmosphere of 5% CO2 and 95% air.
Electrical resistance of EC monolayers was measured using electrical cell impedance sensor system (Applied Biophysics Inc., Troy, N.Y.) as described in Garcia, J. G. N. et al. (2000) J. Appl. Physiol. 89:2333-2343. Cells grown on gold microelectrodes (10^−3 cm^2) in polycarbonate wells act as insulating particles, and the resistance across the monolayers (transendothelial electrical resistance, or TER) is measured in real time. As cells adhere on the microelectrode and intercellular cell contacts are formed or in response to agents which increase junctional integrity, the TER increases (Garcia, J. G. N. et al. (2001) J. Clin. Invest. 108:689-711). In contrast, cell retraction, rounding, or loss of adhesion is reflected by decreases in TER (Garcia, J. G. N. et al. (2000) J. Appl. Physiol. 89:2333-2343). These measurements provide a highly sensitive biophysical assay that indicates the state of cell shape, focal adhesion, and endothelial barrier function (Giaever, I. and Keese, C. R. (1993) Nature 366:591-592; Tiruppathi, C. et al. (1992) Proc. Natl. Acad. Sci. USA 89:7919-7923). All electrical resistance data are presented as normalized values. Briefly, current was applied across the electrodes by a 4000 Hz AC voltage source with an amplitude of 1 V in series with a 1 MΩ resistance to approximate a constant current source (−1 μA). The small gold electrode and the larger counter electrode (1 cm^2) were connected to a phase-sensitive lock-in amplifier (5301A; EG&G Instruments Corp, Princeton, N.J.) with a built in differential preamplifier (5316A; EG&G Instruments Corp.). The in-phase and out-of-phase voltages between the electrodes were monitored in real time with the lock-in amplifier and converted to scalar measurements of transendothelial impedance, of which resistance was the primary focus. […] For some experiments, total TER was vectorially resolved into components reflecting resistance to current flow beneath the cell layer (α) and resistance to current flow between adjacent cells (Rb) as described in Garcia et al. (2000) supra utilizing the method of Giaiver and Keese which models the endothelial monolayer mathematically (Giaever, I. and Keese, C. R. (1993) Nature 366:591-592). Thus, changes in α reflect alterations in the net state of cell-matrix adhesion, whereas changes in Rb reflect alterations in the integrity of cell-cell adhesion. TER values from each microelectrode were pooled at discrete time points and plotted versus time as the mean±standard error of the mean (Garcia et al. (2000) supra).

Rac GTPase = Rac GTPase activity, p21 Rac-binding domain assay; settings: HGF 10 ng/mL or Sph-1-P 1 μM for 1 or 5 min
Experimental: Endothelial cells grown in 100 mm dishes were incubated with agonists in serum-free M199. Cells were lysed in 500 μl Mg^2+ lysis buffer (Upstate Biotechnology, Lake Placid, N.Y.) and homogenized by pipetting. After a brief centrifugation to remove the cell debris, 300 μl of supernatant was incubated with the agarose-conjugated p21-binding domain (PBD) of human PAK-1 (10 μg, 30 min, Upstate Biotechnology). The agarose beads were washed with 1 ml of lysis buffer 5 times and re-suspended in 30 μl of 2×SDS buffer. After 10 min centrifugation at 14,000 g, 15 μl of supernatant from each sample was subjected to electrophoresis in 15% PAGE. […] For total Rac protein measurement, 5 μl of the original cell lysates were used for electrophoresis and western analysis. […] Pulmonary artery endothelial cells were incubated with HGF (10 ng/mL) or Sph-1-P (1 μM) for 1 or 5 min. Cells were lysed, supernatants collected, and activated GTP-bound Rac was precipitated by agarose-conjugated human PAK-1 p21-binding domain and subsequently immunoblotted by anti-Rac mAb. Total Rac protein was detected using cell lysates.

[3] = vs vehicle control, ±SEM, thrombin 100 μM

CCCCCCCCCCCCC/C=C/[C@@H](O)[C@@H](N)COP(=O)(O)O [Sph 1-P, sphingosine 1-phosphate, reference compound]
effect on electrical resistance of epithelial cells [1]: did enhance epithelial cell integrity | TER response in words ([2]; thrombin, 10-60 min): brisk and sustained increase in TER | changes in TER 30 min [2, 3]: +50 ± 6% | changes in TER 60 min [2, 3]: +35 ± 4% | changes in TER 10 min ([2]; vs vehicle control, ±SEM, thrombin 100 μM, (+) increased, (−) decreased): +50 ± 5% | Rac activity (Rac GTPase): rapidly and transiently increases Rac activity

Source: US20050004029A1, “Methods and compositions for treating vascular leak using hepatocyte growth factor” (priority 2001, published 2005)
